Laboratory results taken from PMC8992272, “Stabilities of Three Key Biological Trisulfides with Implications for Their Roles in the Release of Hydrogen Sulfide and Bioaccumulation of Sulfane Sulfur” (ACS Omega, 2022).

How the values were obtained:
Assay type in all cases: physicochemical
[1] = Kinetics of degradation of trisulfides in the presence of a thiol (1H NMR); conditions: water, NAC added, vial uncapped to allow H2S to evaporate, after 1 day
Procedure: To investigate the rate of reaction of trisulfides with an added thiol and to characterize the degradation products, 5 mM trisulfides of cysteine, glutathione, and NAC were separately added to […] For instance, 5 equiv of cysteine was added to cysteine trisulfide and 5 equiv of NAC was added to NAC trisulfide. The pH was buffered to a pH of 7.0 to ensure that each trisulfide was soluble and to closely mimic in vivo pH.
Cysteine trisulfide (0.7 mg, 2.6 μmol) was dissolved in 500 μL of D2O buffered to pH 7.0, yielding a 5 mM solution. Cysteine (1.5 mg, 12.4 μmol) was added, and the ^1H NMR spectra were periodically obtained to track degradation.
Glutathione trisulfide (1.6 mg, 2.6 μmol) was added to 500 μL of D2O buffered to a pH of 7.0, yielding a 5 mM solution. Glutathione (3.8 mg, 12.4 μmol) was added, and the ^1H NMR spectra were obtained periodically to track degradation.
N-Acetylcysteine trisulfide (1.0 mg, 2.6 μmol) was dissolved in 500 μL of D2O buffered to pH 7.0, yielding a 5 mM solution. N-Acetylcysteine (2.1 mg, 12.4 μmol) was added, and the ^1H NMR spectra were obtained periodically to track degradation.
Cysteine trisulfide (0.7 mg, 2.6 μmol) was dissolved in 500 μL of D2O buffered to pH 7.0, yielding a 5 mM solution. tert-Butanol (0.8 μL, 2.6 μmol) was added as an internal standard. […]

[2] = Equilibrium between di-, tri- and tetrasulfides in the presence of elemental sulfur (1H NMR); conditions: water with elemental sulfur, 40 °C, after 15 days, no amine
Procedure: To test this hypothesis, a reaction was completed in D2O with elemental sulfur, NAC disulfide, and butylamine.
To understand why the degradation leveled off, NAC trisulfide was dissolved in water, elemental sulfur was added, and the contents were heated to 40 °C.
N-Acetylcysteine disulfide (9.3 mg, 23 μmol) was dissolved in 600 μL of D2O. Elemental sulfur (6.8 mg, 0.21 mmol) and butylamine (18.5 mg, 0.25 mmol) were added, and the ^1H NMR spectra were periodically obtained to track the equilibrium.

[3] = Stability in nonbuffered D2O at room and elevated temperature (1H NMR)
Procedure: N-Acetylcysteine trisulfide (24.3 mg, 61 μmol) was dissolved in 500 μL of D2O and placed in a 40 °C oil bath. The ^1H NMR spectra were taken periodically to track degradation.
N-Acetylcysteine trisulfide (24.3 mg, 61 μmol) was dissolved in 500 μL of D2O and placed in a 60 °C oil bath. The ^1H NMR spectra were taken periodically to track degradation.
N-Acetylcysteine tetrasulfide (8.0 mg, 21 μmol) was dissolved in 600 μL of D2O. The ^1H NMR spectra were taken periodically to track degradation.
N-Acetylcysteine tetrasulfide (10.0 mg, 26 μmol) was dissolved in 600 μL of D2O and placed in a 40 °C oil bath. The ^1H NMR spectra were taken periodically to track degradation.

trisulfide remaining [1]: no NAC trisulfide was observed | disulfide formed [2]: 12% | tetrasulfide formed [2]: 11% | degraded ([3]; 60 °C, in 3 days): 74% | degradation ([3]; water, 40 °C oil bath, after 10 days): No noticeable degradation
SMILES: CC(=O)N[C@@H](CSSSC[C@H](NC(C)=O)C(=O)O)C(=O)O [NAC trisulfide, N-Acetylcysteine Trisulfide]
